Source: patent US20240262795A1, “PYRAZINE COMPOUNDS AS INHIBITORS OF FLT3” (Biomea Fusion, Inc., priority 2021, published 2024)

Legend:
K-562 = test: Proliferation inhibition, CellTiter-Glo, K-562; assay type: cell-based, human; details: Homo sapiens, K562, 96 h; K-562 cells, IC50 (4 days), CellTiter-Glo; read-out: K-562 IC50
Summary of the method: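 About 10,000 cells per well in RPMI-1640 with 10% FBS. Compounds added 2 h after seeding at eight concentrations in duplicate (0.2% DMSO as 100% proliferation), then incubated ~96 h at 37° C, 5% CO2. ATP measured by CellTiter-Glo luminescence; IC50 from four-parameter logistic fit.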

[1] = molecular target: T1, Ba/F3 cell lines stably expressing human FLT3-ITD (Homo sapiens, UniProt P36888, cells depend on it, form not given); test: FLT3 mutant assay, cell viability, Ba/F3-FLT3-ITD; assay type: cell-based, mouse; details: IC50 (3 days), CellTiter-Glo; read-out: Ba/F3-FLT3-ITD Relative IC50
T1 sequence (P36888 1-993): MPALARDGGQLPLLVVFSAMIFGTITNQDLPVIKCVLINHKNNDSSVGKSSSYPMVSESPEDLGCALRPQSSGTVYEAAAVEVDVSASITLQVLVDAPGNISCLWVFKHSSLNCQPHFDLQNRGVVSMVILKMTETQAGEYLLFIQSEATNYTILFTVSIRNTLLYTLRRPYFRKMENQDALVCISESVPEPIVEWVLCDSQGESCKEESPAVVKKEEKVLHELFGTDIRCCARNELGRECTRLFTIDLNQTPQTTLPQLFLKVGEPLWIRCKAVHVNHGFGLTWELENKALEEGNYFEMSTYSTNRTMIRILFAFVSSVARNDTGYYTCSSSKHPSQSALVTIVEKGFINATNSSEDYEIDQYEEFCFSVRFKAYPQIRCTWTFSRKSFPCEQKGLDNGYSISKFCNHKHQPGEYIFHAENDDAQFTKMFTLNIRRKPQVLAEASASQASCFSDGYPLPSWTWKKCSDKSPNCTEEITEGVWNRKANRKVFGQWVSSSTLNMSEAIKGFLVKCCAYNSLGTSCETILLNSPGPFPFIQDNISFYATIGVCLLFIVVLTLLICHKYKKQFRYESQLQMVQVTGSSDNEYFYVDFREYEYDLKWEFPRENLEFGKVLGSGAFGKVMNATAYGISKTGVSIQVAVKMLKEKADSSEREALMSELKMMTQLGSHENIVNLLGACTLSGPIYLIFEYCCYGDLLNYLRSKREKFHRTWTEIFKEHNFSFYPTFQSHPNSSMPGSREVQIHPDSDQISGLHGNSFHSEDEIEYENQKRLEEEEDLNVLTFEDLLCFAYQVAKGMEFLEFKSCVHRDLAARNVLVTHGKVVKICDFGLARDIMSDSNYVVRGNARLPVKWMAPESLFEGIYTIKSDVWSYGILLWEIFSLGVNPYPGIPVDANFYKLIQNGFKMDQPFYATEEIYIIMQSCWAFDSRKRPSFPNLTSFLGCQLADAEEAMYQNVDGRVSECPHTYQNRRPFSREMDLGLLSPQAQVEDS
Experimental: Activity of compounds on FLT3 activating mutations were assessed using Ba/F3 cell lines (mouse pro-B cell line) stably expressing human FLT3-ITD, FLT3-ITD-D835Y or FLT3-ITD-F691L. […] The supernatant collected were concentrated with PEG8000 and used to infect Ba/F3 cells at 1-5 MOI in serum-free media with polybrene. Infected Ba/F3 cells were selected in presence of puromycin, and surviving cells verified by sequencing and/or protein detection assay. Constitutive expression of the activating kinase transforms the Ba/F3 cells into IL-3-independent growth allowing them to be cultured in the absence of IL-3. […] For use in compound testing, cells in exponential growth phase were harvested, counted, and resuspended at the required cell density. Cell viability assays were performed in 96-well assay plates and 90 μL of cell suspension seeded per well. Serial dilutions of the test compounds and assay controls and were freshly prepared for the assay. Nine-point 3× serial dilutions were prepared in 100% DMSO (400× stock) and subsequently diluted in cell culture media to obtain 10× stocks. Ten microliters of the 10× stock serial dilutions were added to the appropriate wells (triplicate wells per condition) in the assay plate. […] Assay plates were incubated for 3 days in at 37° C. in a humidified incubator with 5% CO2.
Inhibition rate (IR) of the tested compounds was determined by the following formula: IR (%)=(1−(RLU compound−RLU blank)/(RLU control−RLU blank))*100%. The inhibitions of different dose of compound were calculated in Excel file, and the dose responses were analysed using GraphPad Prism to evaluate related parameters, such as Bottom, Top and IC50. For the IC50 analysis by GraphPad Prism, the equation below was used to fit curve: Y=Bottom+(Top−Bottom)/(1+10^((LogIC50−X)*HillSlope))

Compound: CCc1nc(C(N)=O)c(Nc2ccnc(CCNC(=O)[C@H](C)N(C)C(=O)/C=C/CN(C)C)c2)nc1N(C)C(C)C [Compound 605, (S, E)-3-((2-(2-(2-(4-(dimethylamino)-N-methylbut-2-enamido)propanamido)ethyl)pyridin-4-yl)amino)-6-ethyl-5-(isopropyl (methyl)amino) pyrazine-2-carboxamide]
- IC50 (K-562): > 500 nM
- GI50 [1]: 1 to 10 nM
